# Measurements published in patent US20100087407A1, “USE OF AROMATASE INHIBITORS” (priority 2006, published 2010).
# How the values were obtained:
# [1] = postmenopausal breast cancer; cited from earlier work
# [2] = system: endometrium; test: Examples 1-3: endometrial thinning with loading dose and maintenance dose; assay type: in vivo, women; conditions: loading dose on first day, then maintenance dose for 3-6 days, any time of cycle
# Procedure: Five different groups of pre-menopausal women are treated based on where there are in the menstrual cycle. Starting days (i.e., the first day of dosing) for the five groups are on Cycle Days 2-5, 6-9, 10-13, 14-17, and 18-21 for Groups 1-5, respectively.
# A thin endometrium is defined as having a double-wall thickness not greater than 4 mm on transvaginal ultrasound. […] The following table summarizes the dose day and evaluation times.
# [3] = system: endometrium; conditions: small randomized study of progestogens; cited from earlier work
# [4] = system: endometrium; conditions: prior to hysteroscopic surgery; cited from earlier work
SMILES,effect on endometrial thickness [3],also measured
CCC1(c2ccc(N)cc2)CCC(=O)NC1=O (stereo not drawn) [aminoglutethimide],,"patients stopping treatment because of side effects (lethargy, rashes, nausea, fever) [1]: 8-15%"
CC(C)(C#N)c1cc(Cn2cncn2)cc(C(C)(C)C#N)c1 [anastrozole],,endometrial thinning prior to ablation [2]: able to maintain a thin endometrium or to induce adequate thinning
CC(=O)O[C@]1(C(C)=O)CC[C@H]2[C@@H]3C=C(Cl)C4=CC(=O)[C@@H]5C[C@@H]5[C@]4(C)[C@H]3CC[C@@]21C [cyproterone acetate],significant reduction,
C#C[C@]1(O)CC[C@H]2[C@@H]3CCC4=Cc5oncc5C[C@]4(C)[C@H]3CC[C@@]21C [danazol],,endometrial thinning [4]: satisfactory results
CC(=O)O[C@]1(C(C)=O)CC[C@H]2[C@@H]3C[C@H](C)C4=CC(=O)CC[C@]4(C)[C@H]3CC[C@@]21C [medroxyprogesterone acetate],no effect,
C#C[C@]1(O)CC[C@H]2[C@@H]3CCC4=CC(=O)CC[C@@H]4[C@H]3CC[C@@]21C [norethisterone],no effect,
